Measured values: US8143287B2, “Thrombopoietin mimetics” (Stategics, Inc., priority 2006, dated 2012)

How the values were obtained:
Solubility in water = format: physicochemical; settings: parent compound without salt formation or use of specialized excipients
Procedure: A red solution of Compound 3f, 1 M HCl (0.75 mL, 0.75 mmol) and ethanol (1.5 mL) was cooled to 0 deg C. under nitrogen. A solution of 0.060 g of sodium nitrite in 1 mL of water was prepared separately and 0.25 mL (0.22 mmol of sodium nitrite) was added dropwise to the solution containing compound 3f with formation of a dark red-yellow color. The diazotization was monitored using TLC with 75% ethyl acetate-hexanes. Compound 1b (0.042 g, 0.21 mmol) was added after 30 min followed by sodium bicarbonate (0.086 g, 1.0 mmol) and additional ethanol (0.3 mL). The mixture was allowed to warm to 20 deg C., treated with additional sodium bicarbonate (0.073 g, 0.87 mmol) to adjust the pH to 7-8, and allowed to stir for 12 h. The mixture was diluted with ethyl acetate (100 mL) and 0.1 M HCl (5 mL). The aqueous layer was separated and extracted with 20 mL of ethyl acetate. The combined organics were washed with saturated sodium chloride (2×20 mL), and dried over sodium sulfate. The solvent was removed under reduced pressure and the residue purified by silica gel chromatography (40% ethyl acetate-hexanes) to afford Example 3 (0.0256 g, 29% yield over 2 steps). Electrospray MS [M]− 447.2.

[1] = test system: CD34+ CD38− human bone marrow cells; settings: cited from earlier work

| Molecule | solubility (Solubility in water) | expansion of multipotent progenitors ([1]; following a 14-day incubation) | enhancement of clonogenic growth ([1]; in response to KL+FL+IL-3+IL-6+EPO) |
| --- | --- | --- | --- |
| CC1=NN(c2ccc(C)c(C)c2)C(=O)/C1=N\Nc1cccc(C2CCCC(C(=O)O)C2)c1O (stereo not drawn) [Example 3, 3-(3′-{2-[1-(3,4-dimethylphenyl)-3-methyl-5-oxo-4,5-dihydro-1H-pyrazol-4-ylidene]hydrazino}-2′-hydroxy-phenyl)cyclohexane-1-carboxylic Acid] | 140 µM | – | – |
| Thrombopoietin [TPO] | – | 40 fold | ≤ 80% |
